The values below come from patent US9290536B2, “C4 monomethyl triterpenoid derivatives and methods of use thereof” (Reata Pharmaceuticals, Inc., priority 2011, dated 2016).

The test system of the assay is IFNγ-induced NO production in RAW264.7. The assay is described as follows: Suppression of IFNγ-induced NO production in RAW264.7 mouse macrophages (Griess reagent, normalized to WST-1 cell viability). Particulars: RAW264.7 cells, 2 h pre-treatment with drug (0-200 nM), then IFNγ for 24 h. The class given is cell-based. Here is the method: Nitric Oxide Production and Cell Viability. […] On the next day, cells were pre-treated with DMSO or drug (0-200 nM dose range) for 2 hours, and then treated with recombinant mouse IFNγ (R&D Systems) for 24 hours. Nitric Oxide concentration in media was determined using the Griess reagent system (Promega). Cell viability was determined using WST-1 reagent (Roche). IC50 values were determined based on the suppression of IFNγ induced Nitric Oxide production normalized to cell viability.
On the technique in general: The Griess reaction detects nitrite, a stable product of nitric oxide.

Molecules are shown by their SMILES.

Broadly, the IC50 is the point on the concentration scale where inhibition reaches its midpoint. Take `COCCC[C@]12CCC(C)(C)C[C@H]1[C@H]1C(=O)C=C3[C@@]4(C)C=C(C#N)C(=O)[C@@H](C)[C@@H]4CC[C@@]3(C)[C@]1(C)CC2` [TX63919]: the IC50 is 1.4 nM.

Turning to `CCNC(=O)OCCC[C@]12CCC(C)(C)C[C@H]1[C@H]1C(=O)C=C3[C@@]4(C)C=C(C#N)C(=O)[C@@H](C)[C@@H]4CC[C@@]3(C)[C@]1(C)CC2` [TX63982], the IC50 worked out at 3.5 nM.

In the case of `C[C@@H]1C(=O)C(C#N)=C[C@]2(C)C3=CC(=O)[C@@H]4[C@@H]5CC(C)(C)CC[C@]5(C(=O)N(C)C)CC[C@@]4(C)[C@]3(C)CC[C@@H]12` [TX63878], the IC50 came to 1.4 nM.

`COC(=O)[C@]12CCC(C)(C)C[C@H]1[C@H]1C(=O)C=C3[C@@]4(C)C=C(C(=O)O)C(=O)[C@@H](C)[C@@H]4CC[C@@]3(C)[C@]1(C)CC2` [TX63830]: the IC50 is 4.6 nM.

`C[C@@H]1C(=O)C(C#N)=C[C@]2(C)C3=CC(=O)[C@@H]4[C@@H]5CC(C)(C)CC[C@]5(C(N)=O)CC[C@@]4(C)[C@]3(C)CC[C@@H]12` [TX63557]: the IC50 was 2.2 nM.

`COC(=O)[C@]12CCC(C)(C)C[C@H]1[C@H]1C(=O)C=C3[C@@]4(C)C=C(C(N)=O)C(=O)[C@@H](C)[C@@H]4CC[C@@]3(C)[C@]1(C)CC2` [TX63831]: the IC50 stood at 21 nM.

With `CNC(=O)[C@]12CCC(C)(C)C[C@H]1[C@H]1C(=O)C=C3[C@@]4(C)C=C(C#N)C(=O)[C@@H](C)[C@@H]4CC[C@@]3(C)[C@]1(C)CC2` [TX63824], the IC50 came out at 1 nM.

Regarding `C[C@@H]1C(=O)C(C#N)=C[C@]2(C)C3=CC(=O)[C@@H]4[C@@H]5CC(C)(C)CC[C@]5(CCC(=O)N5CCOCC5)CC[C@@]4(C)[C@]3(C)CC[C@@H]12` [TX63888], the IC50 came out at 0.3 nM.

As for `C[C@@H]1C(=O)C(C#N)=C[C@]2(C)C3=CC(=O)[C@@H]4[C@@H]5CC(C)(C)CC[C@]5(C(=O)NC5COC5)CC[C@@]4(C)[C@]3(C)CC[C@@H]12` [TX63825], the IC50 worked out at 2 nM.

Take `CCNC(=O)N[C@]12CCC(C)(C)C[C@H]1[C@H]1C(=O)C=C3[C@@]4(C)C=C(C#N)C(=O)[C@@H](C)[C@@H]4CC[C@@]3(C)[C@]1(C)CC2` [TX63826]: the IC50 was determined as 4.4 nM.

With `CONC(=O)[C@]12CCC(C)(C)C[C@H]1[C@H]1C(=O)C=C3[C@@]4(C)C=C(C#N)C(=O)[C@@H](C)[C@@H]4CC[C@@]3(C)[C@]1(C)CC2` [TX63882], the IC50 was 1.6 nM.

On to `CC(=O)OC[C@]12CCC(C)(C)C[C@H]1[C@H]1C(=O)C[C@@H]3[C@@]4(C)C=C(C#N)C(=O)[C@@H](C)[C@@H]4CC[C@@]3(C)[C@]1(C)CC2` [TX63840], for which the IC50 was determined as 2.9 nM.

In the case of `C[C@@H]1C(=O)C(C#N)=C[C@]2(C)C3=CC(=O)[C@@H]4[C@@H]5CC(C)(C)CC[C@]5(C(=O)N5CCOCC5)CC[C@@]4(C)[C@]3(C)CC[C@@H]12` [TX63881], the IC50 came out at 0.9 nM.

Turning to `COCc1nnc([C@]23CCC(C)(C)C[C@H]2[C@H]2C(=O)C=C4[C@@]5(C)C=C(C#N)C(=O)[C@@H](C)[C@@H]5CC[C@@]4(C)[C@]2(C)CC3)o1` [TX63790], the 50% inhibitory concentration (IC50) was found to be 1.1 nM.

For the compound `C[C@@H]1C(=O)C(C#N)=C[C@]2(C)C3=CC(F)[C@]45OC(=O)[C@@]6(CCC(C)(C)C[C@H]64)CC[C@@]5(C)[C@]3(C)CC[C@@H]12` (some centres unmarked) [TX63907], the IC50 came out at 1.6 nM.

Consider `COC(=O)N[C@]12CCC(C)(C)C[C@H]1[C@H]1C(=O)C=C3[C@@]4(C)C=C(C#N)C(=O)[C@@H](C)[C@@H]4CC[C@@]3(C)[C@]1(C)CC2` [TX63693], for which the IC50 amounted to 1.4 nM.

For the compound `COC(=O)[C@]12CCC(C)(C)C[C@H]1C1=CC[C@@H]3[C@@]4(C)C=C(C#N)C(=O)[C@@H](C)[C@@H]4CC[C@@]3(C)[C@]1(C)CC2` [TX63779], the IC50 was 44 nM.

Turning to `C[C@@H]1C(=O)C(C#N)=C[C@]2(C)C3=CC(=O)[C@@H]4[C@@H]5CC(C)(C)CC[C@]5(OC(N)=O)CC[C@@]4(C)[C@]3(C)CC[C@@H]12` [TX63929], the IC50 was determined as 0.5 nM.

With `C/C(=N\O)NC(=O)[C@]12CCC(C)(C)C[C@H]1[C@H]1C(=O)C=C3[C@@]4(C)C=C(C#N)C(=O)[C@@H](C)[C@@H]4CC[C@@]3(C)[C@]1(C)CC2` [TX63786], the IC50 is 2.2 nM.

Take `CC(=O)OC[C@]12CCC(C)(C)C[C@H]1[C@H]1C(=O)C=C3[C@@]4(C)C=C(C#N)C(=O)[C@@H](C)[C@@H]4CC[C@@]3(C)[C@]1(C)CC2` [TX63546]: the IC50 came to 1 nM.

Consider `C[C@@H]1C(=O)C(C#N)=C[C@]2(C)[C@H]3CC(=O)[C@@H]4[C@@H]5CC(C)(C)CC[C@]5(CO)CC[C@@]4(C)[C@]3(C)CC[C@@H]12` [TX63839], for which the IC50 is 4 nM.

Consider `C[C@@H]1C(=O)C(C#N)=C[C@]2(C)C3=C[C@@H](O)[C@]4(O)[C@@H]5CC(C)(C)CC[C@]5(CO)CC[C@@]4(C)[C@]3(C)CC[C@@H]12` [TX63904], for which the IC50 was determined as 10.4 nM.

`C[C@@H]1C(=O)C(C#N)=C[C@]2(C)C3=CC(=O)[C@@H]4[C@@H]5CC(C)(C)CC[C@]5(CCC(=O)NCC(F)(F)F)CC[C@@]4(C)[C@]3(C)CC[C@@H]12` [TX63887]: the IC50 came to 0.8 nM.

As to `CC(=O)OCCC[C@]12CCC(C)(C)C[C@H]1[C@H]1C(=O)C=C3[C@@]4(C)C=C(C#N)C(=O)[C@@H](C)[C@@H]4CC[C@@]3(C)[C@]1(C)CC2` [TX63920], the IC50 was found to be 0.9 nM.

For the compound `CCCCCCC(=O)N[C@]12CCC(C)(C)C[C@H]1[C@H]1C(=O)C=C3[C@@]4(C)C=C(C#N)C(=O)[C@@H](C)[C@@H]4CC[C@@]3(C)[C@]1(C)CC2` [TX63865], the IC50 stood at 9.4 nM.

On to `CCC(=O)N[C@]12CCC(C)(C)C[C@H]1[C@H]1C(=O)C=C3[C@@]4(C)C=C(C#N)C(=O)[C@@H](C)[C@@H]4CC[C@@]3(C)[C@]1(C)CC2` [TX63864], for which the IC50 was determined as 1.9 nM.

Consider `C[C@@H]1C(=O)C(C#N)=C[C@]2(C)C3=CC(=O)[C@@H]4[C@@H]5CC(C)(C)CC[C@]5(NC(N)=O)CC[C@@]4(C)[C@]3(C)CC[C@@H]12` [TX63862], for which the IC50 stood at 28 nM.

As for `C[C@@H]1C(=O)C(C#N)=C[C@]2(C)C3=CC(=O)[C@@H]4[C@@H]5CC(C)(C)CC[C@]5(C#N)CC[C@@]4(C)[C@]3(C)CC[C@@H]12` [TX63558], the IC50 was determined as 0.6 nM.

Regarding `C[C@@H]1C(=O)C(C#N)=C[C@]2(C)C3=CC(=O)[C@@]4(C)[C@@H]5CC(C)(C)CC[C@]56CC[C@]4(OC6=O)[C@]3(C)CC[C@@H]12` [TX63556], the IC50 turned out to be 69 nM.

Take `C[C@@H]1C(=O)C(C#N)=C[C@]2(C)C3=CC(=O)[C@@H]4[C@@H]5CC(C)(C)CC[C@]5(N)CC[C@@]4(C)[C@]3(C)CC[C@@H]12` [TX63620]: the IC50 is 1.2 nM.

As for `C[C@@H]1C(=O)C(C#N)=C[C@]2(C)C3=CC(=O)[C@@H]4[C@@H]5CC(C)(C)CC[C@]5(F)CC[C@@]4(C)[C@]3(C)CC[C@@H]12` [TX63936], the IC50 is 1.1 nM.

Regarding `C[C@@H]1C(=O)C(C#N)=C[C@]2(C)C3=CC(=O)[C@@H]4[C@@H]5CC(C)(C)CC[C@]5(NC(=O)C5CCC5)CC[C@@]4(C)[C@]3(C)CC[C@@H]12` [TX63863], the IC50 worked out at 1.8 nM.

Turning to `C[C@@H]1C(=O)C(C#N)=C[C@]2(C)C3=CC(=O)[C@@H]4[C@@H]5CC(C)(C)CC[C@]5(CCC(=O)N5CCC(F)(F)C5)CC[C@@]4(C)[C@]3(C)CC[C@@H]12` [TX63890], the IC50 stood at 0.8 nM.

For the compound `C[C@@H]1C(=O)C(C#N)=C[C@]2(C)C3=CC(=O)[C@@H]4[C@@H]5CC(C)(C)CC[C@]5(NC(=O)C5CC5)CC[C@@]4(C)[C@]3(C)CC[C@@H]12` [TX63866], the IC50 was 1.4 nM.

With `CC(=O)N[C@]12CCC(C)(C)C[C@H]1[C@H]1C(=O)C=C3[C@@]4(C)C=C(C#N)C(=O)[C@@H](C)[C@@H]4CC[C@@]3(C)[C@]1(C)CC2` [TX63622], the IC50 came to 3.8 nM.

Take `CNC(=O)N[C@]12CCC(C)(C)C[C@H]1[C@H]1C(=O)C=C3[C@@]4(C)C=C(C#N)C(=O)[C@@H](C)[C@@H]4CC[C@@]3(C)[C@]1(C)CC2` [TX63876]: the IC50 stood at 7.3 nM.

For `COC(=O)[C@]12CCC(C)(C)C[C@H]1[C@H]1C(=O)C=C3[C@@]4(C)C=CC(=O)[C@@H](C)[C@@H]4CC[C@@]3(C)[C@]1(C)CC2` [TX63832], the IC50 came to 149 nM.

`COC(=O)[C@]12CCC(C)(C)C[C@H]1[C@H]1C(=O)C=C3[C@@]4(C)C=C(I)C(=O)[C@@H](C)[C@@H]4CC[C@@]3(C)[C@]1(C)CC2` [TX63833]: the IC50 was 88 nM.
